Laboratory results as given in ChEMBL document CHEMBL5154747, “Discovery of new carbonic anhydrase IX inhibitors as anticancer agents by toning the hydrophobic and hydrophilic rims of the active site to encounter the dual-tail approach” (Eur J Med Chem, 2022).

Key:
Type in all cases: functional
[1] = system: IGROV-1; assay: Anticancer activity against human IGROV-1 cells assessed as cell growth inhibition incubated for 48 hrs by SRB assay; details: for CC50: read-out: LC50 (the source's name)
[2] = system: SK-OV-3; assay: Anticancer activity against human SK-OV-3 cells assessed as cell growth inhibition incubated for 48 hrs by SRB assay
[3] = system: CAKI-1; assay: Anticancer activity against human CAKI-1 cells assessed as cell growth inhibition incubated for 48 hrs by SRB assay
[4] = system: HT-29; assay: Anticancer activity against human HT-29 cells assessed as cell growth inhibition incubated for 48 hrs by SRB assay; details: for CC50: read-out: LC50 (the source's name)
[5] = system: CCRF-CEM; assay: Anticancer activity against human CCRF-CEM cells assessed as cell growth inhibition incubated for 48 hrs by SRB assay; details: for CC50: read-out: LC50 (the source's name)
[6] = system: SNB-75; assay: Anticancer activity against human SNB-75 cells assessed as cell growth inhibition incubated for 48 hrs by SRB assay
[7] = system: SF-539; assay: Anticancer activity against human SF-539 cells assessed as cell growth inhibition incubated for 48 hrs by SRB assay; details: for CC50: read-out: LC50 (the source's name)
[8] = system: MDA-MB-231; assay: Anticancer activity against human MDA-MB-231 cells assessed as cell growth inhibition incubated for 48 hrs by SRB assay
[9] = system: Malme-3M; assay: Anticancer activity against human Malme-3M cells assessed as cell growth inhibition incubated for 48 hrs by SRB assay; details: for CC50: read-out: LC50 (the source's name)
[10] = system: MDA-MB-468; assay: Anticancer activity against human MDA-MB-468 cells assessed as cell growth inhibition incubated for 48 hrs by SRB assay; details: for CC50: read-out: LC50 (the source's name)
[11] = system: NCI-H23; assay: Anticancer activity against human NCI-H23 cells assessed as cell growth inhibition incubated for 48 hrs by SRB assay; details: for CC50: read-out: LC50 (the source's name)
[12] = system: UACC-62; assay: Anticancer activity against human UACC-62 cells assessed as cell growth inhibition incubated for 48 hrs by SRB assay
[13] = system: RPMI-8226; assay: Anticancer activity against human RPMI-8226 cells assessed as cell growth inhibition incubated for 48 hrs by SRB assay
[14] = system: SW-620; assay: Anticancer activity against human SW-620 cells assessed as cell growth inhibition incubated for 48 hrs by SRB assay; details: for CC50: read-out: LC50 (the source's name)
[15] = system: Hs-578T; assay: Anticancer activity against human Hs-578T cells assessed as cell growth inhibition incubated for 48 hrs by SRB assay
[16] = system: OVCAR-5; assay: Anticancer activity against human OVCAR-5 cells assessed as cell growth inhibition incubated for 48 hrs by SRB assay; details: for CC50: read-out: LC50 (the source's name)
[17] = system: NCI-H226; assay: Anticancer activity against human NCI-H226 cells assessed as cell growth inhibition incubated for 48 hrs by SRB assay; details: for CC50: read-out: LC50 (the source's name)
[18] = system: SF-295; assay: Anticancer activity against human SF-295 cells assessed as cell growth inhibition incubated for 48 hrs by SRB assay; details: for CC50: read-out: LC50 (the source's name)
[19] = system: K562; assay: Anticancer activity against human K562 cells assessed as cell growth inhibition incubated for 48 hrs by SRB assay; details: for CC50: read-out: LC50 (the source's name)
[20] = system: COLO 205; assay: Anticancer activity against human COLO 205 cells assessed as cell growth inhibition incubated for 48 hrs by SRB assay; details: for CC50: read-out: LC50 (the source's name)
[21] = system: TK-10; assay: Anticancer activity against human TK-10 cells assessed as cell growth inhibition incubated for 48 hrs by SRB assay; details: for CC50: read-out: LC50 (the source's name)
[22] = system: DU-145; assay: Anticancer activity against human DU-145 cells assessed as cell growth inhibition incubated for 48 hrs by SRB assay
[23] = system: SK-MEL-2; assay: Anticancer activity against human SK-MEL-2 cells assessed as cell growth inhibition incubated for 48 hrs by SRB assay
[24] = system: A498; assay: Anticancer activity against human A498 cells assessed as cell growth inhibition incubated for 48 hrs by SRB assay; details: for CC50: read-out: LC50 (the source's name)
[25] = system: BT-549; assay: Anticancer activity against human BT-549 cells assessed as cell growth inhibition incubated for 48 hrs by SRB assay; details: for CC50: read-out: LC50 (the source's name)
[26] = system: T47D; assay: Anticancer activity against human T47D cells assessed as cell growth inhibition incubated for 48 hrs by SRB assay
[27] = system: SK-MEL-28; assay: Anticancer activity against human SK-MEL-28 cells assessed as cell growth inhibition incubated for 48 hrs by SRB assay; details: for CC50: read-out: LC50 (the source's name)
[28] = system: HCC 2998; assay: Anticancer activity against human HCC 2998 cells assessed as cell growth inhibition incubated for 48 hrs by SRB assay; details: for CC50: read-out: LC50 (the source's name)
[29] = system: RXF 393; assay: Anticancer activity against human RXF 393 cells assessed as cell growth inhibition incubated for 48 hrs by SRB assay; details: for CC50: read-out: LC50 (the source's name)
[30] = system: HOP-92; assay: Anticancer activity against human HOP-92 cells assessed as cell growth inhibition incubated for 48 hrs by SRB assay; details: for CC50: read-out: LC50 (the source's name)
[31] = system: U-251; assay: Anticancer activity against human U-251 cells assessed as cell growth inhibition incubated for 48 hrs by SRB assay; details: for CC50: read-out: LC50 (the source's name)
[32] = system: SF-268; assay: Anticancer activity against human SF-268 cells assessed as cell growth inhibition incubated for 48 hrs by SRB assay
[33] = system: PC-3; assay: Anticancer activity against human PC-3 cells assessed as cell growth inhibition incubated for 48 hrs by SRB assay; details: for CC50: read-out: LC50 (the source's name)
[34] = system: HCT-116; assay: Anticancer activity against human HCT-116 cells assessed as cell growth inhibition incubated for 48 hrs by SRB assay
[35] = system: NCI-H522; assay: Anticancer activity against human NCI-H522 cells assessed as cell growth inhibition incubated for 48 hrs by SRB assay; details: for CC50: read-out: LC50 (the source's name)
[36] = system: MCF7; assay: Anticancer activity against human MCF7 cells assessed as cell growth inhibition incubated for 48 hrs by SRB assay
[37] = system: HOP-62; assay: Anticancer activity against human HOP-62 cells assessed as cell growth inhibition incubated for 48 hrs by SRB assay; details: for CC50: read-out: LC50 (the source's name)
[38] = system: HL-60(TB); assay: Anticancer activity against human HL-60(TB) cells assessed as cell growth inhibition incubated for 48 hrs by SRB assay; details: for CC50: read-out: LC50 (the source's name)
[39] = system: MOLT-4; assay: Anticancer activity against human MOLT-4 cells assessed as cell growth inhibition incubated for 48 hrs by SRB assay; details: for CC50: read-out: LC50 (the source's name)

## Cc1nn(-c2ccccc2)cc1/C=N/Nc1nc(Nc2ccccc2)nc(Nc2ccc(S(N)(=O)=O)cc2)n1
[1]
  GI50: 2590 nM
  CC50: > 100000 nM
[2]
  GI50: 2930 nM
  LC50: > 100000 nM
[3]
  GI50: 2010 nM
[4]
  GI50: 2880 nM
  CC50: > 100000 nM
[5]
  GI50: 2090 nM
  CC50: > 100000 nM
[6]
  GI50: 2690 nM
  LC50 (concentration killing 50% of cells): > 100000 nM
[7]
  GI50: 1710 nM
  CC50: 6250 nM
[8]
  GI50: 3110 nM
  LC50 (concentration killing 50% of cells): > 100000 nM
[9]
  GI50: 1600 nM
  CC50: 6130 nM
[10]
  GI50: 1520 nM
  CC50: 7030 nM
[11]
  GI50: 1740 nM
  CC50: 7500 nM
[12]
  GI50: 1780 nM
  LC50: 7190 nM
[13]
  GI50: 1660 nM
  LC50 (concentration killing 50% of cells): > 100000 nM
[14]
  GI50: 3380 nM
  CC50: > 100000 nM
[15]
  GI50: 2770 nM
  LC50 (concentration killing 50% of cells): > 100000 nM
[16]
  GI50: 2060 nM
  CC50: > 100000 nM
[17]
  GI50: 1850 nM
  CC50: > 100000 nM
[18]
  CC50: > 100000 nM
[19]
  GI50: 2630 nM
  CC50: > 100000 nM
[20]
  GI50: 2470 nM
  CC50: > 100000 nM
[21]
  GI50: 1480 nM
  CC50: 8250 nM
[22]
  GI50: 3060 nM
  LC50 (50% lethal concentration): > 100000 nM
[23]
  GI50: 1690 nM
[24]
  GI50: 1710 nM
  CC50: 6710 nM
[25]
  GI50: 1840 nM
  CC50: > 100000 nM
[26]
  GI50: 2140 nM
  LC50: > 100000 nM
[27]
  GI50: 1800 nM
  CC50: 6640 nM
[28]
  GI50: 1880 nM
  CC50: 7010 nM
[29]
  GI50: 1770 nM
  CC50: 6500 nM
[30]
  GI50: 2440 nM
  CC50: > 100000 nM
[31]
  GI50: 3650 nM
  CC50: > 100000 nM
[32]
  GI50: 2930 nM
  LC50 (concentration killing 50% of cells): > 100000 nM
[33]
  GI50: 2220 nM
  CC50: > 100000 nM
[34]
  GI50: 2000 nM
  LC50 (concentration killing 50% of cells): > 100000 nM
[35]
  GI50: 2660 nM
  CC50: > 100000 nM
[36]
  GI50: 1550 nM
  LC50: 7590 nM
[37]
  GI50: 2830 nM
  CC50: > 100000 nM
[38]
  GI50: 2240 nM
  CC50: > 100000 nM
[39]
  GI50: 2290 nM
  CC50: > 100000 nM

## NS(=O)(=O)c1ccc(Nc2nc(N/N=C/c3ccccn3)nc(Nc3ccccc3)n2)cc1
[1]
  GI50: 790 nM
  CC50: > 100000 nM
[2]
  GI50: 840 nM
  LC50: > 100000 nM
[3]
  GI50: 610 nM
[3]; read-out: LC50 (the source's name)
  CC50: > 100000 nM
[4]
  GI50: 2150 nM
  CC50: > 100000 nM
[5]
  GI50: 310 nM
  CC50: > 100000 nM
[6]
  GI50: 1320 nM
  LC50 (concentration killing 50% of cells): 5710 nM
[7]
  GI50: 680 nM
  CC50: 8000 nM
[8]
  GI50: 500 nM
  LC50 (concentration killing 50% of cells): > 100000 nM
[9]
  GI50: 1000 nM
  CC50: 6280 nM
[10]
  GI50: 310 nM
  CC50: > 100000 nM
[11]
  GI50: 1210 nM
  CC50: 8410 nM
[12]
  GI50: 570 nM
  LC50: 6150 nM
[13]
  GI50: 2110 nM
  LC50 (concentration killing 50% of cells): > 100000 nM
[14]
  GI50: 710 nM
  CC50: > 100000 nM
[15]
  GI50: 1880 nM
  LC50 (concentration killing 50% of cells): > 100000 nM
[16]
  GI50: 1600 nM
  CC50: > 100000 nM
[17]
  GI50: 1070 nM
  CC50: > 100000 nM
[18]
  GI50: 1400 nM
  CC50: > 100000 nM
[19]
  GI50: 400 nM
  CC50: > 100000 nM
[20]
  GI50: 410 nM
  CC50: > 100000 nM
[21]
  GI50: 1190 nM
  CC50: > 100000 nM
[22]
  GI50: 850 nM
  LC50 (50% lethal concentration): > 100000 nM
[23]
  GI50: 1500 nM
[24]
  GI50: 1610 nM
  CC50: 6890 nM
[25]
  GI50: 890 nM
  CC50: > 100000 nM
[26]
  GI50: 470 nM
  LC50: > 100000 nM
[27]
  GI50: 750 nM
  CC50: 6190 nM
[28]
  GI50: 650 nM
  CC50: > 100000 nM
[29]
  GI50: 1070 nM
  CC50: 6510 nM
[30]
  GI50: 800 nM
  CC50: > 100000 nM
[31]
  GI50: 510 nM
  CC50: > 100000 nM
[32]
  GI50: 460 nM
  LC50 (concentration killing 50% of cells): > 100000 nM
[33]
  GI50: 690 nM
  CC50: > 100000 nM
[34]
  GI50: 390 nM
  LC50 (concentration killing 50% of cells): > 100000 nM
[35]
  GI50: 450 nM
  CC50: > 100000 nM
[36]
  GI50: 1100 nM
  LC50: 6800 nM
[37]
  GI50: 550 nM
  CC50: > 100000 nM
[38]
  GI50: 630 nM
  CC50: > 100000 nM
[39]
  GI50: 430 nM
  CC50: > 100000 nM
